Data reported in PMC10816640, “Discovery of Novel Diphenyl Acrylonitrile Derivatives That Promote Adult Rats’ Hippocampal Neurogenesis” (International Journal of Molecular Sciences, 2024).
“Also recorded” adds a separate entry of the source.

What was measured:
[1] = tested on: progenitor cells in the rodents’ hippocampi; experiment: Proliferation stage of neurogenesis: BrdU labeling, rats sacrificed 24 h after BrdU; type: in vivo, rat; conditions: eleven-week-old rats (n = 2), i.p. 4.0 mg/kg/day for 28 days, BrdU pulse, vs vehicle
Source text: Previous in vitro or in vivo studies mainly focused on stimulating the proliferation effect of the small molecules. In this study, a two-step protocol was employed. First, the stimulating function of the compounds on progenitor cells in the rodents’ hippocampi was examined with using bromodeoxyuridine (BrdU) labeling. Next, the potent compounds were further screened to ascertain their ability to promote the differentiation of neural progenitor cells, as confirmed by dual labeling of BrdU and NeuN (neuronal nuclear antigen).
Adult rats were administered intraperitoneally with the prepared compounds at a dose of 4.0 mg/kg/day for a period of 28 days, followed by a BrdU pulse. After 24 h, the rats were sacrificed, and their brain tissues were isolated and cryosectioned. Immunohistochemical staining was performed and eight brain tissue slices were randomly selected for statistical analyzing.
Eight-week-old (or 10-week-old) SD male rats purchased from Peking University Health Science Center were acclimatized for one week at the Beijing Institute of Technology. All experimental protocols strictly adhered to the regulations governing the management of experimental animals and the animal ethics policy of the Beijing Institute of Technology.
The compounds were dissolved in reagent-grade soybean oil containing 10% ethanol to reach a drug concentration of 2.8 mg/mL. The rats in the experimental group received intraperitoneal injections of the compounds at a dose of 4.0 mg/kg/d for 28 consecutive days. As a control, the vehicle group was administered injections of reagent-grade soybean oil containing 10% ethanol. BrdU (Sigma-Aldrich, St. louis, MA, USA) solution, prepared in physiological saline at a concentration of 10 mg/mL, was administered to all rats on day 29. Each rat received two injections of BrdU at a dosage of 50 mg/kg, with a 2 h interval between injections. The rats were euthanized 24 h (or 28 days) after the final BrdU injection.
Two or four rats per group were anesthetized using pentobarbital sodium (70 mg/kg) and subsequently perfused with physiological saline. The brain tissue was carefully dissected and fixed in 4% paraformaldehyde at 4 °C for one week. Next, the brain tissue underwent dehydration using a phosphate-buffered saline (PBS) solution containing 20% to 30% sucrose. Finally, the brain tissue was cryosectioned into slices with a thickness of 30 μm, and eight slices were randomly selected for further analysis.
The assessment of new cell proliferation was conducted using BrdU staining. To eliminate endogenous peroxides, sections were exposed to 1% H2O2 for 30 min at RT. Cellular denaturation was achieved by treating the sections with 2 M HCl at 37 °C for 1 h, followed by rinsing in 0.1 M borate buffer (pH 8.5). Tissue sections were subjected to blocking in a solution consisting of 5% goat serum and 0.5% Triton X-100 in PBS at RT for 1–2 h. The specimens were then incubated overnight at 4 °C with a mouse primary antibody specific to BrdU (diluted at 1:500; Millipore, Billerica, MA, USA). Subsequently, the DAB kit was employed for 2 h of incubation at RT.
The data were presented as mean ± SEM (standard error of the mean) and visualized using GRAPHPAD PRISM 6 (Graphpad Software, La Jolla, CA, USA). Statistical analysis was conducted utilizing one-way analysis of variance (ANOVA) followed by a post hoc test. Subsequent to the statistical treatment, the observed discrepancies were determined to be statistically significant (p < 0.05).

[2] = tested on: newborn cells in the subgranular zone; experiment: BrdU+ newborn cells, rats sacrificed 28 days after BrdU; type: in vivo, rat; conditions: nine-week-old rats (n = 2), i.p. 4.0 mg/kg/day for 28 days, BrdU pulse, Figure 7A
Experimental: The study employed a rat model, wherein nine-week-old rats were administered intraperitoneally with the compound at a dose of 4.0 mg/kg/day for 28 days and then treated with a pulse of BrdU. Instead of sacrificing the rats 24 h after the BrdU injections, the rats were sacrificed after another 28 days. The brains were then isolated and cryosectioned. Eight randomly selected slices were subjected to immunohistochemical staining. This staining enabled the co-localization of the BrdU-incorporated cells with the NeuN marker, enabling the definition of the compounds that could promote the differentiation of newborn neural progenitor cells into mature functional neurons. The compounds were dissolved in reagent-grade soybean oil containing 10% ethanol to reach a drug concentration of 2.8 mg/mL. The rats in the experimental group received intraperitoneal injections of the compounds at a dose of 4.0 mg/kg/d for 28 consecutive days. As a control, the vehicle group was administered injections of reagent-grade soybean oil containing 10% ethanol. BrdU (Sigma-Aldrich, St. louis, MA, USA) solution, prepared in physiological saline at a concentration of 10 mg/mL, was administered to all rats on day 29. Each rat received two injections of BrdU at a dosage of 50 mg/kg, with a 2 h interval between injections. The rats were euthanized 24 h (or 28 days) after the final BrdU injection. Two or four rats per group were anesthetized using pentobarbital sodium (70 mg/kg) and subsequently perfused with physiological saline. The brain tissue was carefully dissected and fixed in 4% paraformaldehyde at 4 °C for one week. Next, the brain tissue underwent dehydration using a phosphate-buffered saline (PBS) solution containing 20% to 30% sucrose. Finally, the brain tissue was cryosectioned into slices with a thickness of 30 μm, and eight slices were randomly selected for further analysis. The assessment of new cell proliferation was conducted using BrdU staining. To eliminate endogenous peroxides, sections were exposed to 1% H2O2 for 30 min at RT. Cellular denaturation was achieved by treating the sections with 2 M HCl at 37 °C for 1 h, followed by rinsing in 0.1 M borate buffer (pH 8.5). Tissue sections were subjected to blocking in a solution consisting of 5% goat serum and 0.5% Triton X-100 in PBS at RT for 1–2 h. The specimens were then incubated overnight at 4 °C with a mouse primary antibody specific to BrdU (diluted at 1:500; Millipore, Billerica, MA, USA). Subsequently, the DAB kit was employed for 2 h of incubation at RT. The differentiation process of NPCs was visualized through the utilization of the NeuN/BrdU double staining technique. Tissue sections were subjected to an incubation period in a blocking buffer at RT for 1 to 2 h. The specimens were exposed to a rabbit anti-NeuN antibody (diluted at 1:500, Abcam, Cambridge, MA, UK) and a primary antibody, BrdU (diluted at 1:500), overnight at 4 °C. Afterwards, the sections were treated with anti-mouse 488 and anti-rabbit TRITC secondary antibodies for 2 h at RT. The data were presented as mean ± SEM (standard error of the mean) and visualized using GRAPHPAD PRISM 6 (Graphpad Software, La Jolla, CA, USA). Statistical analysis was conducted utilizing one-way analysis of variance (ANOVA) followed by a post hoc test. Subsequent to the statistical treatment, the observed discrepancies were determined to be statistically significant (p < 0.05).

Row | Compound | proliferation-promoting activity (number of BrdU+ newborn cells) ([1]; Figures 3-6) | proliferation-promoting activity (number of BrdU+ newborn cells) ([1]; Figures 3-6, 4 mg/kg/day) | proliferative activity over the longer 28 day period (number of BrdU+ cells) [2]
1 | CS(=O)(=O)Nc1ccc(/C=C/Cc2ccc3c(c2)OCO3)cc1 [23i, (E)-N-(4-(3-(benzo[d][1, 3]dioxol-5-yl)prop-1-en-1-yl)phenyl)methanesulfonamide] | decreased | – | –
2 | CC(=O)Nc1ccc(CN(C)Cc2ccc3c(c2)OCO3)cc1 [36a, N-(4-(((benzo[d][1, 3]dioxol-5-ylmethyl)(methyl)amino)methyl)phenyl)acetamide] | abolished the activity | – | –
3 | CC(C)C(=O)Nc1ccc(C/C=C/c2ccc3c(c2)OCO3)cc1 [18b, (E)-N-(4-(3-(benzo[d][1, 3]dioxol-5-yl)allyl)phenyl)isobutyramide] | – | significant proliferation-promoting activity; also recorded: maintained the same proliferative activity as 9b | did not exhibit significant proliferative activity
4 | COc1cc(/C=C/c2ccc(NC(=O)C(C)C)cc2)cc(OC)c1 [9b, (E)-N-(4-(3,5-dimethoxystyryl)phenyl)isobutyramide] | significant proliferation-promoting activity | – | –
5 | CN(C)S(=O)(=O)Cc1ccc(/C=C/c2ccc3c(c2)OCO3)cc1 [8j, (E)-1-(4-(2-(benzo[d][1, 3]dioxol-5-yl)vinyl)phenyl)-N,N-dimethylmethanesulfonamide] | – | significant proliferation-promoting activity; also recorded: greater propensity for enhancing activity | –
6 | CC(C)C(=O)NCc1ccc(/C=C/c2ccc3c(c2)OCO3)cc1 [42b, (E)-N-(4-(2-(benzo[d][1, 3]dioxol-5-yl)vinyl)benzyl)isobutyramide] | – | not and loss of activity | remained devoid of proliferative activity
7 | O=C(Nc1ccc(/C=C/c2ccc3c(c2)OCO3)cc1)C1CCC1 [8d, (E)-N-(4-(2-(benzo[d][1, 3]dioxol-5-yl)vinyl)phenyl)cyclobutanecarboxamide] | – | significant proliferation-promoting activity; also recorded: greater propensity for enhancing activity | could promote the proliferation of progenitors
8 | COc1cc(C/C=C/c2ccc(NC(=O)C(C)C)cc2)cc(OC)c1 [24b, (E)-N-(4-(3-(3,5-dimethoxyphenyl)prop-1-en-1-yl)phenyl)isobutyramide] | – | – | did not exhibit significant proliferative activity
9 | O=S(=O)(Nc1ccc(/C=C/c2ccc3c(c2)OCO3)cc1)C1CC1 [8k, (E)-N-(4-(2-(benzo[d][1, 3]dioxol-5-yl)vinyl)phenyl)cyclopropanesulfonamide] | – | significant proliferation-promoting activity; also recorded: greater propensity for enhancing activity | could promote the proliferation of progenitors
10 | N#CC1(C(=O)Nc2ccc(/C=C/c3ccc4c(c3)OCO4)cc2)CC1 [8e, (E)-N-(4-(2-(benzo[d][1, 3]dioxol-5-yl)vinyl)phenyl)-1-cyanocyclopropane-1-carboxamide] | did not display significant activity | – | –
11 | CN(C)C(=O)Nc1ccc(/C=C/c2ccc3c(c2)OCO3)cc1 [8c, (E)-3-(4-(2-(benzo[d][1, 3]dioxol-5-yl)vinyl)phenyl)-1,1-dimethylurea] | significant proliferation-promoting activity | – | could promote the proliferation of progenitors
12 | CC(C)C(=O)Nc1ccc(/C=C/Cc2ccc3c(c2)OCO3)cc1 [23b, (E)-N-(4-(3-(benzo[d][1, 3]dioxol-5-yl)prop-1-en-1-yl)phenyl)isobutyramide] | – | significant proliferation-promoting activity; also recorded: maintained the same proliferative activity as 9b | did not exhibit significant proliferative activity
13 | COc1cc(/C=C/c2ccc(NC(=O)c3ccccc3)c(F)c2)cc(OC)c1 [12f, (E)-N-(4-(3,5-dimethoxystyryl)-2-fluorophenyl)benzamide] | – | not and adversely affected the proliferative activity | –
